Active and inactive are the calls of the source. No cut-off for these calls is given here.
Columns and labels:
Type in all cases: cell-based
HeLa S3 [1] = experiment: Activation of HIF-1 in human HeLa S3 cells assessed as increase in HIF-1alpha protein level at 10 ng/ml pretreated with Go6983 for 1 hr followed by 12 hrs incubation under hypoxic condition by Western blotting analysis
HeLa S3 [2] = experiment: Activation of HIF-1 in human HeLa S3 cells assessed as increase in VEGF mRNA level at 10 ng/ml pretreated with Go6983 for 1 hr followed by 6 hrs incubation under hypoxic condition by real-time quantitative PCR analysis
HeLa [3] = experiment: Activation of HIF-1 transcriptional activity in human HeLa cells transfected with 5xHRE-Luc/UCHL1 reporter at 0.1 to 100 ng/ml pretreated with Go6983 for 1 hr followed by 24 hrs incubation under hypoxic condition by luciferase reporter assay; details: dose 0.1-100 ng/ml
HeLa [4] = experiment: Activation of HIF-1 transcriptional activity in human HeLa cells transfected with 5xHRE-Luc/UCHL1 reporter at 0.1 to 1000 ng/ml preincubated for 1 hr under normoxic condition followed by 24 hrs incubation under hypoxic condition by luciferase reporter assay; details: filed as activator, dose 0.1-1000 ng/ml, time 25.0 hrs
HeLa S3 [5] = experiment: Activation of HIF-1 in human HeLa S3 cells assessed as increase in VEGF mRNA level at 0.1 to 10 ng/ml preincubated for 1 hr under normoxic condition followed by 6 hrs incubation under hypoxic condition by real-time quantitative PCR analysis; details: filed as activator, dose 0.1-10 ng/ml, time 7.0 hrs
HeLa S3 [6] = experiment: Activation of HIF-1 in human HeLa S3 cells assessed as increase in HIF-1alpha protein level at 0.1 to 10 ng/ml preincubated for 1 hr under normoxic condition followed by 12 hrs incubation under hypoxic condition by Western blotting analysis; details: filed as activator, dose 0.1-10 ng/ml, time 13.0 hrs
HeLa S3 [7] = experiment: Activation of HIF-1 in human HeLa S3 cells assessed as increase in HIF-1alpha protein level at 10 ng/ml pretreated with MG132 for 1 hr followed by 12 hrs incubation under normoxic condition by Western blotting analysis; details: filed as activator
HeLa [8] = experiment: Activation of HIF-1 transcriptional activity in human HeLa cells transfected with 5xHRE-Luc/UCHL1 reporter at 10 ng/ml pretreated with Go6976 for 1 hr followed by 24 hrs incubation under hypoxic condition by luciferase reporter assay
HeLa [9] = experiment: Activation of HIF-1 transcriptional activity in human HeLa cells transfected with 5xHRE-Luc/UCHL1 reporter and PKCalpha siRNA at 10 ng/ml incubated for 24 hrs under hypoxia condition by luciferase reporter assay
HeLa [10] = experiment: Activation of HIF-1 transcriptional activity in human HeLa cells transfected with 5xHRE-Luc/UCHL1 reporter and PKCdelta siRNA at 10 ng/ml incubated for 24 hrs under hypoxia condition by luciferase reporter assay; details: filed as activator
HeLa S3 [11] = experiment: Activation of HIF-1 transcriptional activity in human HeLa S3 cells transfected with 5xHRE-Luc/UCHL1 reporter and PKCalpha siRNA assessed as upregulation of HIF-1alpha protein level at 10 ng/ml incubated for 12 hrs under hypoxia condition by Western blotting assay
HeLa S3 [12] = experiment: Activation of PKCalpha/mTORC pathway in human HeLa S3 cells assessed as accumulation of phosphorylated ribosomal protein S6 at 10 ng/ml incubated for 12 hrs under hypoxia condition by Western blotting analysis; details: filed as activator
HeLa S3 [13] = experiment: Activation of PKCalpha/mTORC pathway in human HeLa S3 cells transfected with PKCalpha siRNA assessed as accumulation of phosphorylated ribosomal protein S6 at 10 ng/ml incubated for 12 hrs under hypoxia condition by Western blotting analysis
HeLa S3 [14] = experiment: Activation of PKCdelta/mTORC pathway in human HeLa S3 cells transfected with PKCdelta siRNA assessed as accumulation of phosphorylated ribosomal protein S6 at 10 ng/ml incubated for 12 hrs under hypoxia condition by Western blotting analysis; details: filed as activator
HeLa [15] = experiment: Activation of HIF-1 transcriptional activity in human HeLa cells transfected with 5xHRE-Luc/UCHL1 reporter at 10 ng/ml pretreated with torin1 for 1 hr followed by 24 hrs incubation under hypoxia condition by luciferase reporter assay
HeLa S3 [16] = experiment: Activation of HIF-1 in human HeLa S3 cells assessed as increase in VEGF mRNA level at 10 ng/ml preincubated for 1 hr under normoxic condition followed by 6 hrs incubation under hypoxic condition by real-time quantitative PCR analysis; details: filed as activator, time 7.0 hrs
HeLa S3 [17] = experiment: Activation of HIF-1 in human HeLa S3 cells assessed as increase in HIF-1alpha protein level at 10 ng/ml preincubated for 1 hr under normoxic condition followed by 12 hrs incubation under hypoxic condition by Western blotting analysis; details: filed as activator, time 13.0 hrs
HeLa [18] = experiment: Activation of HIF-1 transcriptional activity in human HeLa cells transfected with 5xHRE-Luc/UCHL1 reporter at 0.1 to 10 uM preincubated for 1 hr under normoxic condition followed by 24 hrs incubation under hypoxic condition by luciferase reporter assay; details: filed as activator, dose 0.1-10 µM, time 25.0 hrs

Compound | Activity (HeLa S3 [1]) | Activity (HeLa S3 [2]) | Activity (HeLa [3]) | Activity (HeLa [4]) | Activity (HeLa S3 [5]) | Activity (HeLa S3 [6]) | Activity (HeLa S3 [7]) | Activity (HeLa [8]) | Activity (HeLa [9]) | Activity (HeLa [10]) | Activity (HeLa S3 [11]) | Activity (HeLa S3 [12]) | Activity (HeLa S3 [13]) | Activity (HeLa S3 [14]) | Activity (HeLa [15]) | Activity (HeLa S3 [16]) | Activity (HeLa S3 [17]) | Activity (HeLa [18])
C=C[C@@]1(C)CC[C@](C)(C(C)C)c2cc3c4c(c[nH]c4c21)C[C@@H](CO)NC(=O)[C@H](C(C)C)N3C | inactive | inactive | inactive | Active | Active | Active | Active | inactive | inactive | Active | inactive | Active | inactive | Active | inactive |  |  | 
CCCCCCCCCCCCCC(=O)O[C@@H]1[C@@H](C)[C@@]2(O)[C@@H](C=C(CO)C[C@]3(O)C(=O)C(C)=C[C@@H]23)[C@@H]2C(C)(C)[C@]12OC(C)=O |  |  |  | Active |  |  | Active | inactive | inactive | Active | inactive | Active | inactive | Active |  | Active | Active | 
C[C@H]1[C@@H]2C[C@@]3(O[C@H](CCC3(C)C)CC(=O)O[C@@H](CO)CC(=O)O2)O[C@@H]1CCCCc1cccc(O)c1 |  |  |  |  |  |  |  |  |  |  |  |  |  |  |  |  |  | Active

Reference: ChEMBL document CHEMBL5537209, “Teleocidin B-4, a PKC Activator, Upregulates Hypoxia-Inducible Factor 1 (HIF-1) Activity by Promoting the Accumulation of HIF-1α Protein via the PKCα/mTORC Signaling Pathway” (J Nat Prod, 2024)
